Read-outs that look alike come from different tables or passages of the source.
Columns and labels:
[1] = system: rat heart mitochondria; assay: Mitochondrial swelling; assay type: biochemical; details: rat heart mitochondria 0.5 mg/mL, compounds at 100 μM, Ca2+ 25 μM
Experimental: (§1) Rat heart mitochondria were isolated by differential centrifugation using ice-cold buffer containing KCl (120 mM) and HEPES (20 mM), pH = 7.4, and a trypsin inhibitor. The mitochondrial yield ranged from 5 to 10 mg/mL of protein in the heart sediment. Mitochondria were stored in plastic containers at 4 °C.
Mitochondrial swelling was recorded by the light transmission of the rat heart mitochondrial suspension at λ = 540 nm using a Victor 3 plate analyzer (Perkin Elmer, Germany). The swelling rate was estimated as △A540/min and was calculated as the tangent of the angle of the steepest dependence curve part △A540 versus time.

[2] = target: T1, cytochrome-c-oxidase complex of the mitochondrial respiratory chain (IV) (Rattus norvegicus, UniProt P00406+P05503+P05505); assay: Respiratory chain complex IV, OCR of isolated rat heart mitochondria (Seahorse); assay type: biochemical; details: isolated rat heart mitochondria 10 μg/well, compounds at 30 μM
T1 construct: Rat heart mitochondria were isolated by differential centrifugation; from tissue; host or cells: rat heart mitochondria
T1 sequence (P00406 whole entry, other chains not shown): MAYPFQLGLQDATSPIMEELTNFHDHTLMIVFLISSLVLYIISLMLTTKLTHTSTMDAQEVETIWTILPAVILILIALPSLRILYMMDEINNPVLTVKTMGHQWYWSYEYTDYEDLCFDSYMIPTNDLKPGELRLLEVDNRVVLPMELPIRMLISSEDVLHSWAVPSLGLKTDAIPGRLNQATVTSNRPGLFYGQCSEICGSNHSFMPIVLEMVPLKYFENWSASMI
T1 sequence (P05505 whole entry, other chains not shown): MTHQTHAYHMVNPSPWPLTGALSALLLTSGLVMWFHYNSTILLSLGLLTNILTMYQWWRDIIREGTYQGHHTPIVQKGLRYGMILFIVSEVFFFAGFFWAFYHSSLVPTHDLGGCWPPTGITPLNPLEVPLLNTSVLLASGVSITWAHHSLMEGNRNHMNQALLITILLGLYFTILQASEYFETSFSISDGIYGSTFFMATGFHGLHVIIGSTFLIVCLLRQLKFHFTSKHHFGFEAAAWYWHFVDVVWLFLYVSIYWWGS
Experimental: as §1
(§2) The effect of the compounds on the functioning of the electron transport chain complexes was carried out using an Agilent Seahorse XF96e Analyzer (Seahorse Bioscience, Billerica, MA, USA) according to their ability to change the rate of oxygen uptake by isolated rat heart mitochondria (10 μg/well). The following modulators were used: activators of complex I of the electron transport chain, NADH dehydrogenase,—glutamate/malate; rotenone (2 μM) (Sigma Aldrich, Saint Louis, USA)—a tissue respiration blocker that stops the transfer of electrons from the reduced form of NADH to cytochrome b, was used as complex I inhibitor; potassium succinate ([…]) (Dia-M, Moscow, Russia), which is a substrate of complex II of the electron transport chain, made it possible to assess mitochondrial respiration mediated by succinate dehydrogenase; complex III (ubiquinol-cytochrome c-oxidoreductase) inhibitor—a blocker of cellular respiration antimycin A (Sigma Aldrich, Saint Louis, USA), as well as ascorbate/TMPD (0.5 μM) (Sigma Aldrich, Saint Louis, USA), allowed us to evaluate the cytochrome-c-oxidase mediated respiration of organelles.

[3] = system: HeLa cervical tumor cell line; assay: Glycolysis stress test (Seahorse, extracellular acidification rate); assay type: cell-based; details: HeLa cells, test substances 30 μM
Experimental: The ability of the studied compounds to modulate anaerobic glycolysis was investigated using the Agilent Seahorse XF96e Analyzer (Seahorse Bioscience, Billerica, MA, USA) according to the level of hydrogen proton production in the samples on the HeLa cervical tumor cell line by the glycolysis stress test.
HeLa cells in the exponential growth phase were plated into a 96-well cell culture microplate Seahorse (the density of the cell culture was 3 × 10^4/well). After 24 h, the rate of medium extracellular acidification by cells treated with the test compounds was recorded in real time during the sequential injection of modulators: glucose (10 mM) (Dia-M, Moscow, Russia), oligomycin (1 μM) (Sigma Aldrich, Saint Louis, USA), 2-fluoro-2-deoxy-D-glucose (25 mM) (Sigma Aldrich, Saint Louis, USA). This allowed us to estimate the glycolysis intensity in cells by three main parameters of glycolytic function: glycolysis by adding saturating amounts of glucose to the system, glycolytic capacity by the introduction of oligomycin, and glycolytic reserve by using the inhibitor of this glycolysis 2-fluoro-2-deoxy-D-glucose.

[4] = system: A549 (lung carcinoma); assay: MTT cell viability test, A549; assay type: cell-based, Human; details: read-out: IC50, A549
Experimental: (§3) Human cell cultures of tumor origin (A549 (lung carcinoma), HCT116 (colon adenocarcinoma), MCF7 (breast cancer), RD (embryonic rhabdomyosarcoma)), and the line of non-transformed cells HEK293 (embryonic kidney) provided by the Laboratory of Tumor Cell Genetics at the N.N. Blokhin Russian Cancer Research Institute, as well as by the Institute of Cytology of the Russian Academy of Sciences, were grown in DMEM (Gibco, Scotland, UK) and MEM (Gibco, Scotland, UK) containing fetal calf serum (10% by volume) (ThermoFisher Scientific, Paisley, UK), L-glutamine (2 mM) (Gibco, Scotland, UK), and penicillin-streptomycin (1% by volume) (PanEco, Moscow, Russia).
(§4) Cellular viability was determined by the MTT test. […] After 24 h of incubation, various concentrations of the test compounds dissolved in DMSO (≤1%) were added to the cell cultures, the solvent was added to the control wells in an equal volume, and then the cells were cultured under the same conditions for 72 h. After the incubation time, MTT (3-(4,5-dimethylthiazol-2-yl)-2,5-diphenyltetrazolium bromide, 5 mg/mL) was added to each well, and the plates were further incubated for 2 h (until a characteristic color appeared). Then, the formazan granules were dissolved in DMSO.
(§5) Using a plate analyzer (Cytation3, BioTech Instruments Inc., USA), the optical density was determined at λ = 530 nm.

[5] = system: HCT116 (colon adenocarcinoma); assay: MTT cell viability test, HCT116; assay type: cell-based, Human; details: read-out: IC50, HCT116
Experimental: as §3, §4, §5

[6] = system: MCF7 (breast cancer); assay: MTT cell viability test, MCF7; assay type: cell-based, Human; details: read-out: IC50, MCF7
Experimental: as §3, §4, §5

[7] = system: HEK293 (embryonic kidney); assay: MTT cell viability test, non-transformed HEK293; assay type: cell-based, Human; details: read-out: IC50, HEK293
Experimental: as §3, §4, §5

[8] = system: RD (embryonic rhabdomyosarcoma); assay: MTT cell viability test, RD; assay type: cell-based, Human; details: 72 h, read-out: IC50, RD
Experimental: as §3, §4, §5

[9] = target: T2, complex II of the electron transport chain (Rattus norvegicus, UniProt P21913+Q641Z9+Q6PCT8+Q920L2); assay: Respiratory chain complex II, OCR of isolated rat heart mitochondria (Seahorse); assay type: biochemical; details: isolated rat heart mitochondria 10 μg/well, compounds at 30 μM
T2 construct: Rat heart mitochondria were isolated by differential centrifugation; from tissue; host or cells: rat heart mitochondria
T2 sequence (Q920L2 35-656): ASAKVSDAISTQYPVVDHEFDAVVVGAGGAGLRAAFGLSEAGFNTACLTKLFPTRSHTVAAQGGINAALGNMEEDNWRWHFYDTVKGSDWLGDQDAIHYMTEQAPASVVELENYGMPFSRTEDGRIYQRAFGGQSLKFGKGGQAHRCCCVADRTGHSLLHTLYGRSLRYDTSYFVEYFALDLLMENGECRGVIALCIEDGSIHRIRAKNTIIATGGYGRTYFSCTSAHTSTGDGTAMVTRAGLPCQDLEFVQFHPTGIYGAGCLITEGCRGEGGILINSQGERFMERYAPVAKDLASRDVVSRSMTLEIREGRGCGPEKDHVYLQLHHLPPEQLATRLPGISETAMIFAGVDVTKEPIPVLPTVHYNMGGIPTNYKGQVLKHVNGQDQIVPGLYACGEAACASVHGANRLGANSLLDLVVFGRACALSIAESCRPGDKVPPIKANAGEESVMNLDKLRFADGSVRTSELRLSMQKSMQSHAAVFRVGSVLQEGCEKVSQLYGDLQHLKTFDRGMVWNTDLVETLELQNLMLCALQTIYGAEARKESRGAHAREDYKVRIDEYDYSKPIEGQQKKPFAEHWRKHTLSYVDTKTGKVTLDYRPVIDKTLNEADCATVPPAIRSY
T2 sequence (P21913 31-282): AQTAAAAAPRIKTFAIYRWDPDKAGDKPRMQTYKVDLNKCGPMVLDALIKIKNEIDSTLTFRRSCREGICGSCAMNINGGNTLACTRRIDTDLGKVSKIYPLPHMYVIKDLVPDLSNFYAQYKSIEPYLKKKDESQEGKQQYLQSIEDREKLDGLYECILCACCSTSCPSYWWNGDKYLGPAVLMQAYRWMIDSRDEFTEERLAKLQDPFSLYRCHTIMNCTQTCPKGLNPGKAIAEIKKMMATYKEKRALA
T2 sequence (Q641Z9 30-169 limits assumed): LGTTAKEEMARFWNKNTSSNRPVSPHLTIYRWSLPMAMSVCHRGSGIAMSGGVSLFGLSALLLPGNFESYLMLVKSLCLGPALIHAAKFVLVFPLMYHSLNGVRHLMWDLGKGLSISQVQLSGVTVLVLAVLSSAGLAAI
T2 sequence (Q6PCT8 57-159): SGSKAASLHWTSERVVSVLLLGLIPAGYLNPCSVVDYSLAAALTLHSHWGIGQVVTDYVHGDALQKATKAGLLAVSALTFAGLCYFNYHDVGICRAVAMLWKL
Experimental: as §1, §2

[10] = system: lipid peroxidation (LPO) of rat brain homogenate; assay: Lipid peroxidation of rat brain homogenate (TBA test); assay type: biochemical; details: rat brain homogenate 2 mg/mL, Fe2+ 500 μM, compound 100 μM
Experimental: To obtain a brain homogenate, decapitation of rats anesthetized in advance with CO2 was performed using a guillotine. The brain was homogenized in a buffer containing KCl (120 mM) and HEPES (20 mM) (Gibco, Scotland, UK), pH = 7.4, at 4 °C and centrifuged at 1500 rpm to obtain a supernatant.
To study the effect of compounds on the process of lipid peroxidation (LPO) of rat brain homogenate, we used a modified version of the TBA test, which is based on the reaction of 2-thiobarbituric acid with the final LPO product—malonic dialdehyde (MDA). According to the experimental scheme, the well of the plate contained the studied compounds (100 μM), rat brain homogenate (2 mg/mL), as well as 500 μM ferrous iron ions (FeSO4 × […]). After 30 min of incubation at 37 °C, TBA reagent was added to all samples, incubated for 90 min at 90 °C, and centrifuged at 6000 rpm for 15 min. The optical density of the selected supernatant was measured on a Victor 3 plate analyzer (Perkin Elmer, Germany […]) at λ = 540 nm.

[11] = MTT, 72 h, non-transformed cells

IC50 ([4]; MTT, 72 h) [nM]	IC50 ([5]; MTT, 72 h) [nM]	IC50 ([6]; MTT, 72 h) [nM]	Structure (SMILES)	Mitochondrial Swelling, % of Ca2+-Induced Swelling [1]	Work of Respiratory Chain Complexes, % Decrease in OCR of Control, IV [2]	Effect on glycolytic function (extracellular acidification rate) [3]	IC50 [7, 11] [nM]	IC50 ([8]; MTT) [nM]	Work of Respiratory Chain Complexes, % Decrease in OCR of Control, II [9]	IC50 ([4]; Homo sapiens, A549, 72 h) [nM]	IC50 ([5]; Homo sapiens, HCT-116, 72 h) [nM]	IC50 ([6]; Homo sapiens, MCF7, 72 h) [nM]	melting point [°C]	IC50 ([7]; Homo sapiens, HEK293, 72 h) [nM]	IC50 ([8]; Homo sapiens) [nM]	% of MDA relative to control [10] [%]	other results
4520 ± 570	2520 ± 20	3030 ± 70	COc1cccc2c1C(=O)c1c(O)c3c(c(O)c1C2=O)CC(O)(C(=O)CO)CC3OC1CC(NCC2C(=O)OC3CC4(C)CCCC(C)C45OC5C32)C(O)C(C)O1 (stereo not shown) [Compound 5a]	— (“—” indicates activity absence for compounds (≤10%) in a particular test)	23.99 ± 4.41%	most pronounced ability to reduce the acidification rate of the medium by cells	4500 ± 320	2470 ± 70	— (“—” indicates activity absence for compounds (≤10%) in a particular test)	–	–	–	–	–	–	–	–
–	–	–	COc1cccc2c1C(=O)c1c(O)c3c(c(O)c1C2=O)C[C@@](O)(C(=O)CO)C[C@@H]3O[C@H]1C[C@H](NC[C@H]2C(=O)O[C@@H]3CC4=CCC[C@H](C)[C@@]4(C)[C@@H](O)[C@@H]32)[C@H](O)[C@H](C)O1 [Compound 7a, (8S,10S)-6,8,11-Trihydroxy-10-(((2R,4S,5S,6S)-5-hydroxy-4-((((3S,3aS,4S,4aR,5S,9aR)-4-hydroxy-4a,5-dimethyl-2-oxo-2,3,3a,4,4a,5,6,7,9,9a-decahydronaphtho[2,3-b]furan-3-yl)methyl)amino)-6-methyltetrahydro-2H-pyran-2-yl)oxy)-8-(2-hydroxyacetyl)-1-methoxy-7,8,9,10-tetrahydrotetracene-5,12-dione]	— (“—” indicates activity absence for compounds (≤10%) in a particular test)	38.16 ± 0.84%	–	–	–	33.21 ± 3.84%	5430 ± 160	920	6030 ± 110	170 to 175	10500 ± 880	4220 ± 100	–	–
–	–	–	COc1cccc2c1C(=O)c1c(O)c3c(c(O)c1C2=O)C[C@@](O)(C(C)=O)C[C@@H]3O[C@H]1C[C@H](N)[C@H](O)[C@H](C)O1 [b, daunorubicin, reference compound]	40.98 ± 3.86%	— (“—” indicates activity absence for compounds (≤10%) in a particular test)	–	–	–	72.12 ± 0.96%	330 ± 10	120	840 ± 170	–	12300 ± 1170	630 ± 30	226.05 ± 6.60	Work of Respiratory Chain Complexes, % Decrease in OCR of Control, II ([9]; listed as daunorubicin): more than 70%
–	–	–	COc1cccc2c1C(=O)c1c(O)c3c(c(O)c1C2=O)C[C@@](O)(C(=O)CO)C[C@@H]3O[C@H]1C[C@H](N)[C@H](O)[C@H](C)O1 [a, doxorubicin, reference compound]	116.20 ± 10.98%	37.73 ± 0.34%	–	–	–	70.54 ± 0.64%	–	–	–	–	–	–	236.68 ± 13.06	IC50 ([4]; Homo sapiens, A549, 72 h, MTT, 72 h): 380 ± 20 nM; IC50 ([5]; Homo sapiens, HCT-116, 72 h, MTT, 72 h): 140 ± 10 nM; IC50 ([6]; Homo sapiens, MCF7, 72 h, MTT, 72 h): 460 ± 30 nM; IC50 ([7]; Homo sapiens, HEK293, 72 h, MTT, 72 h, non-transformed cells): 6780 ± 760 nM; IC50 ([8]; Homo sapiens, MTT): 290 ± 20 nM; Work of Respiratory Chain Complexes, % Decrease in OCR of Control, II ([9]; listed as doxorubicin): more than 70%
–	–	–	COc1cccc2c1C(=O)c1c(O)c3c(c(O)c1C2=O)C[C@@](O)(C(C)=O)C[C@@H]3O[C@H]1C[C@H](NC[C@H]2C(=O)O[C@@H]3CC4=CCC[C@H](C)[C@@]4(C)[C@@H](O)[C@@H]32)[C@H](O)[C@H](C)O1 [Compound 7b, (8S,10S)-8-Acetyl-6,8,11-trihydroxy-10-(((2R,4S,5S,6S)-5-hydroxy-4-((((3S,3aS,4S,4aR,5S,9aR)-4-hydroxy-4a,5-dimethyl-2-oxo-2,3,3a,4,4a,5,6,7,9,9a-decahydronaphtho[2,3-b]furan-3-yl)methyl)amino)-6-methyltetrahydro-2H-pyran-2-yl)oxy)-1-methoxy-7,8,9,10-tetrahydrotetracene-5,12-dione]	— (“—” indicates activity absence for compounds (≤10%) in a particular test)	46.08 ± 3.42%	–	–	–	21.04 ± 4.22%	2010 ± 90	200 ± 10	1900 ± 70	155 to 162	6420 ± 210	1950 ± 10	–	–
1420 ± 50	1010 ± 10	1240 ± 230	COc1cccc2c1C(=O)c1c(O)c3c(c(O)c1C2=O)C[C@@](O)(C(C)=O)C[C@@H]3O[C@H]1C[C@H](NC[C@H]2C(=O)O[C@@H]3C[C@@]4(C)CCCC(C)=C4C[C@@H]32)[C@H](O)[C@H](C)O1 [Compound 3b]	26.45 ± 7.14%	— (“—” indicates activity absence for compounds (≤10%) in a particular test)	most pronounced ability to reduce the acidification rate of the medium by cells	6370 ± 240	590 ± 50	–	–	–	–	–	–	–	–	–

Source: paper PMC8153121, “N-Alkylation of Anthracycline Antibiotics by Natural Sesquiterpene Lactones as a Way to Obtain Antitumor Agents with Reduced Side Effects” (Biomedicines, 2021)
